In US11472788B2, “Benzoimidazoles as selective inhibitors of indoleamine 2,3-dioxygenases” (BEIGENE, LTD., priority 2017, dated 2022):

Molecular target: cellular IDO1 in HeLa cells (Homo sapiens (Human), UniProt P14902)
Test: HeLa Cell-Based IDO1 Kyn (Kynurenine) Production Assay
Settings: IFN-γ induced IDO1, 48 hours incubation, Kyn absorbance at 480 nm
How it was run: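 Compounds added to HeLa cells together with IFN-γ (100 ng/mL final) and 0.4 mM L-Trp, 48 h at 37 °C. Kynurenine in TCA-deproteinized supernatant measured colorimetrically with 4-(dimethylamino)benzaldehyde at 480 nm; IC50 from four-parameter logistic fit.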

cellular IDO1 in HeLa cells, sequence (P14902 whole entry): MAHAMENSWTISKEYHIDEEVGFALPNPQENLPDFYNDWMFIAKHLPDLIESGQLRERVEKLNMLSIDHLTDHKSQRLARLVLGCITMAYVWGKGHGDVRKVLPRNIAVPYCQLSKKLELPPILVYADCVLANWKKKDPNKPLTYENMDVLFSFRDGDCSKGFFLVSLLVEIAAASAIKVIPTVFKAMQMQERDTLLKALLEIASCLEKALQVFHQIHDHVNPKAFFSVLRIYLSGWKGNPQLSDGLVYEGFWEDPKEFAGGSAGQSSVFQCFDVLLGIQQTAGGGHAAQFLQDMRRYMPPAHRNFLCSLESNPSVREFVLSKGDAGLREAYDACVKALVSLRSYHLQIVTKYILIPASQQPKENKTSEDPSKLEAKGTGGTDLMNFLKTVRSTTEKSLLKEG

Row | EC50 | Compound
1 | 0.96 nM | Cc1noc(-c2ccc3nc([C@H](C)[C@H]4CC[C@@H](c5ccnc6ccc(F)cc65)CC4)[nH]c3c2)n1 [Example B220, 5-(2-((R)-1-((1s,4S)-4-(6-fluoroquinolin-4-yl)cyclohexyl)ethyl)-1H-benzo[d]imidazol-6-yl)-3-methyl-1,2,4-oxadiazole]
2 | 74 nM | Fc1ccc2nccc([C@H]3CC[C@H](c4nc5cc(Cl)ccc5[nH]4)CC3)c2c1 [Example C2a, 4-((1r,4r)-4-(5-chloro-1H-benzo[d]imidazol-2-yl)cyclohexyl)-6-fluoroquinoline]
3 | 11 nM | Fc1ccc2nccc([C@H]3CC[C@@H](c4nc5cc(Cl)ccc5[nH]4)CC3)c2c1 [Example C2b, 4-((1s,4s)-4-(5-chloro-1H-benzo[d]imidazol-2-yl)cyclohexyl)-6-fluoroquinoline]
4 | 16 nM | Cc1ccc2[nH]c(C3CCC(c4ccnc5ccc(F)cc45)CC3)nc2c1 (stereo not drawn) [Example C3, 6-fluoro-4-(4-(5-methyl-1H-benzo[d]imidazol-2-yl)cyclohexyl)quinoline]
5 | 9.1 nM | Fc1ccc2nccc(C3CCC(c4nc5cc(Br)ccc5[nH]4)CC3)c2c1 (stereo not drawn) [Example C4, 4-(4-(5-bromo-1H-benzo[d]imidazol-2-yl)cyclohexyl)-6-fluoroquinoline]
6 | 1430 nM | Fc1ccc2[nH]c([C@H]3CC[C@H](c4ccnc5ccc(F)cc54)CC3)nc2c1 [Example C5a, 6-fluoro-4-((1r,4r)-4-(5-fluoro-1H-benzo[d]imidazol-2-yl)cyclohexyl)quinoline]
7 | 73 nM | Fc1ccc2[nH]c([C@H]3CC[C@@H](c4ccnc5ccc(F)cc54)CC3)nc2c1 [Example C5b, 6-fluoro-4-((1s,4s)-4-(5-fluoro-1H-benzo[d]imidazol-2-yl)cyclohexyl)quinoline]
8 | 14 nM | Fc1ccc2nccc([C@H]3CC[C@@H](c4nc5cc(C6CC6)ccc5[nH]4)CC3)c2c1 [Example C6b, 4-((1s,4s)-4-(5-cyclopropyl-1H-benzo[d]imidazol-2-yl)cyclohexyl)-6-fluoroquinoline]
9 | 1360 nM | Fc1ccc2nccc([C@H]3CC[C@H](c4nc5cc(F)c(F)cc5[nH]4)CC3)c2c1 [Example C7a, 4-((1r,4r)-4-(5,6-difluoro-1H-benzo[d]imidazol-2-yl)cyclohexyl)-6-fluoroquinoline]
10 | 70 nM | Fc1ccc2nccc([C@H]3CC[C@@H](c4nc5cc(F)c(F)cc5[nH]4)CC3)c2c1 [Example C7b, 4-((1s,4s)-4-(5,6-difluoro-H-benzo[d]imidazol-2-yl)cyclohexyl)-6-fluoroquinoline]
11 | 1200 nM | COC(=O)c1ccc2[nH]c([C@H]3CC[C@H](c4ccnc5ccc(F)cc54)CC3)nc2c1 [Example C8a, methyl 2-((1r,4r)-4-(6-fluoroquinolin-4-yl)cyclohexyl)-1H-benzo[d]imidazole-5-carboxylate]
12 | 37 nM | COC(=O)c1ccc2[nH]c([C@H]3CC[C@@H](c4ccnc5ccc(F)cc54)CC3)nc2c1 [Example C8b, methyl 2-((1s,4s)-4-(6-fluoroquinolin-4-yl)cyclohexyl)-1H-benzo[d]imidazole-5-carboxylate]
13 | > 10000 nM | NC(=O)c1ccc2[nH]c([C@H]3CC[C@H](c4ccnc5ccc(F)cc54)CC3)nc2c1 [Example C9a, 2-((1r,4r)-4-(6-fluoroquinolin-4-yl)cyclohexyl)-1H-benzo[d]imidazole-5-carboxamide]
14 | 1240 nM | NC(=O)c1ccc2[nH]c([C@H]3CC[C@@H](c4ccnc5ccc(F)cc54)CC3)nc2c1 [Example C9b, 2-((1s,4s)-4-(6-fluoroquinolin-4-yl)cyclohexyl)-1H-benzo[d]imidazole-5-carboxamide]
15 | 7 nM | Fc1ccc2nccc(C3CCC(CCc4nc5cc(C6CC6)ccc5[nH]4)CC3)c2c1 (stereo not drawn) [Example C10, 4-(4-(2-(5-cyclopropyl-1H-benzo[d]imidazol-2-yl)ethyl)cyclohexyl)-6-fluoroquinoline]
